Test results from publication PMC11724075, “Small-molecule-induced ERBB4 activation to treat heart failure” (Nature Communications, 2025).
Values joined by “and” are separate entries in the source; they are usually repeats but may differ in a detail not shown here. Equal values may be shown once.

How the values were obtained:
ERBB2/ERBB4 = biological target: T1, ERBB2/ERBB4 (Homo sapiens, UniProt Q15303); assay: PathHunter U2OS ERBB2/ERBB4 dimerization assay; type: cell-based; details: for ERBB4/ERBB2 dimerization signal: relative to signal with 0.1 µM NRG1, single biological replicates
T1 construct: host or cells: U2OS (osteosarcoma cells), PathHunter engineered line
Description: (§1) PathHunter U2OS ERBB4/ERBB4 (osteosarcoma cells; Eurofins, 93-0961C3), U2OS ERBB2/ERBB4 (osteosarcoma cells; Eurofins, 493-0960C3), ERBB2/ERBB3 (osteosarcoma cells; Eurofins, 93-1042C3) and ERBB1/ERBB1 (osteosarcoma cells; Eurofins, 93-0989C3) dimerization cell lines were cultured according to the manufacturer’s instructions. Briefly, cells were cultured in Cell Culture Reagent 103 (Eurofins, 92-3103 G) supplemented with 250 µg/mL Hygromycin B (Eurofins, 92-0029) and 500 µg/mL G418 (Eurofins, 92-0030), and were maintained at 37 °C in humidified atmosphere of 5% CO2. HCFs (Innoprot, P10454) were cultured in fibroblast medium (Innoprot, P60108) supplemented with 10% (v/v) fetal bovine serum (FBS, Innoprot), 10% (v/v) fibroblast growth supplement (Innoprot), and 1% (v/v) penicillin/streptomycin solution (Innoprot). iAMs[33] (kindly provided by LUMC) were cultured in Advanced DMEM F-12 (Thermo Fisher Scientific, 12634028) supplemented with 2% (v/v) heat-inactivated FBS (Thermo Fisher Scientific, 10270106), 1% (v/v) penicillin/streptomycin (10,000 units/mL and 10 mg/mL respectively, Thermo Fisher Scientific, 15140122), 1× GlutaMAX (Thermo Fisher Scientific, 35050061), and 100 ng/mL doxycycline (Tocris, 4090) for proliferation. To induce differentiation, iAMs were transferred to medium without doxycycline.
(§2) U2OS ERBB4/ERBB4 dimerization cells were seeded at a density of 5 × 10^4 cells/well in 100 µL Cell Plating 0 Reagent, in white 96-well plates (PerkinElmer, 6005680) and incubated for 24 h at 37 °C, 5% CO2. […] Next, 110 µL PathHunter Flash Detection Reagent was added to each well and incubated at RT for 1 h after which the luminescence signal was measured using the Luminoskan Ascent (Thermo Fisher Scientific). […] The same experimental set-up was used for the U2OS ERBB2/ERBB4, U2OS ERBB2/ERBB3 and U2OS ERBB1/ERBB1 dimerization cell lines.

ERBB2/ERBB3 = biological target: T2, ERBB2/ERBB3 (Homo sapiens, UniProt P21860); assay: PathHunter U2OS ERBB2/ERBB3 dimerization assay; type: cell-based; details: for ERBB3/ERBB2 dimerization signal: relative to signal with 0.1 µM NRG1, single biological replicates
T2 construct: host or cells: U2OS (osteosarcoma cells), PathHunter engineered line
Description: as §1, §2

T2 sequence (P21860 20-1342): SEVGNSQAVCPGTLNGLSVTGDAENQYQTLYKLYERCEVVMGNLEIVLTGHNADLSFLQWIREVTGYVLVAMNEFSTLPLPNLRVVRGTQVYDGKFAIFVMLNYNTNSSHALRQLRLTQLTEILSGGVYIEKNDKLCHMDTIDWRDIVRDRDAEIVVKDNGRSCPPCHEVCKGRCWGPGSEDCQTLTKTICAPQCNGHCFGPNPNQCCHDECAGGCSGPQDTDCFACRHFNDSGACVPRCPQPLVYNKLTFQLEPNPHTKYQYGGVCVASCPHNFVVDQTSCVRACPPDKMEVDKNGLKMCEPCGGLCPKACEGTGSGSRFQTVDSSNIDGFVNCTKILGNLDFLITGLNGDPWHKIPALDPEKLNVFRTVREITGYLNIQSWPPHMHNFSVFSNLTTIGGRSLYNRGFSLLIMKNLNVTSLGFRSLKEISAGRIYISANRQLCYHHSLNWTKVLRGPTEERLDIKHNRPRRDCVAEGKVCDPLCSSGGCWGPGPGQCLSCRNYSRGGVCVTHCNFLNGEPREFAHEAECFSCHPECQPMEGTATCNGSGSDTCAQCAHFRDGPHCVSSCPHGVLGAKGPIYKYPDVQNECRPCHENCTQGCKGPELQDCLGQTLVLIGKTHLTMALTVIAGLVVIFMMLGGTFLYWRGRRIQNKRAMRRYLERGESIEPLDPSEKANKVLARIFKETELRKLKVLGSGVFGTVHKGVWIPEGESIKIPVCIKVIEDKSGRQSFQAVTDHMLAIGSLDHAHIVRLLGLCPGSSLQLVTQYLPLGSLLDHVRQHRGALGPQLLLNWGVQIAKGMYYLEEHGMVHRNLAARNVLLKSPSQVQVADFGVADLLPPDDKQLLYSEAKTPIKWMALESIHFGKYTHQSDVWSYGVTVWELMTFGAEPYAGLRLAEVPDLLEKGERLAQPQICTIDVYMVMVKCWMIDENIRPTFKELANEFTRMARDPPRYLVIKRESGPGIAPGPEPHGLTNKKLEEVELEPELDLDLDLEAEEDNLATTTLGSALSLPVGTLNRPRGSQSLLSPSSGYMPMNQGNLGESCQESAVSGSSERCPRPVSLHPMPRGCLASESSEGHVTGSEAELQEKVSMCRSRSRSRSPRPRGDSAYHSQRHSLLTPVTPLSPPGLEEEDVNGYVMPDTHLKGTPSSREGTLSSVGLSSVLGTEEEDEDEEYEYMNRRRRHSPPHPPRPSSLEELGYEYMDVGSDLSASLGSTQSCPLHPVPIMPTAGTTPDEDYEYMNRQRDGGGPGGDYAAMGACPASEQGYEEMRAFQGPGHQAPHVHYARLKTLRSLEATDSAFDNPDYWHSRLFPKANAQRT
T2 sequence (P04626 23-1255, further chain): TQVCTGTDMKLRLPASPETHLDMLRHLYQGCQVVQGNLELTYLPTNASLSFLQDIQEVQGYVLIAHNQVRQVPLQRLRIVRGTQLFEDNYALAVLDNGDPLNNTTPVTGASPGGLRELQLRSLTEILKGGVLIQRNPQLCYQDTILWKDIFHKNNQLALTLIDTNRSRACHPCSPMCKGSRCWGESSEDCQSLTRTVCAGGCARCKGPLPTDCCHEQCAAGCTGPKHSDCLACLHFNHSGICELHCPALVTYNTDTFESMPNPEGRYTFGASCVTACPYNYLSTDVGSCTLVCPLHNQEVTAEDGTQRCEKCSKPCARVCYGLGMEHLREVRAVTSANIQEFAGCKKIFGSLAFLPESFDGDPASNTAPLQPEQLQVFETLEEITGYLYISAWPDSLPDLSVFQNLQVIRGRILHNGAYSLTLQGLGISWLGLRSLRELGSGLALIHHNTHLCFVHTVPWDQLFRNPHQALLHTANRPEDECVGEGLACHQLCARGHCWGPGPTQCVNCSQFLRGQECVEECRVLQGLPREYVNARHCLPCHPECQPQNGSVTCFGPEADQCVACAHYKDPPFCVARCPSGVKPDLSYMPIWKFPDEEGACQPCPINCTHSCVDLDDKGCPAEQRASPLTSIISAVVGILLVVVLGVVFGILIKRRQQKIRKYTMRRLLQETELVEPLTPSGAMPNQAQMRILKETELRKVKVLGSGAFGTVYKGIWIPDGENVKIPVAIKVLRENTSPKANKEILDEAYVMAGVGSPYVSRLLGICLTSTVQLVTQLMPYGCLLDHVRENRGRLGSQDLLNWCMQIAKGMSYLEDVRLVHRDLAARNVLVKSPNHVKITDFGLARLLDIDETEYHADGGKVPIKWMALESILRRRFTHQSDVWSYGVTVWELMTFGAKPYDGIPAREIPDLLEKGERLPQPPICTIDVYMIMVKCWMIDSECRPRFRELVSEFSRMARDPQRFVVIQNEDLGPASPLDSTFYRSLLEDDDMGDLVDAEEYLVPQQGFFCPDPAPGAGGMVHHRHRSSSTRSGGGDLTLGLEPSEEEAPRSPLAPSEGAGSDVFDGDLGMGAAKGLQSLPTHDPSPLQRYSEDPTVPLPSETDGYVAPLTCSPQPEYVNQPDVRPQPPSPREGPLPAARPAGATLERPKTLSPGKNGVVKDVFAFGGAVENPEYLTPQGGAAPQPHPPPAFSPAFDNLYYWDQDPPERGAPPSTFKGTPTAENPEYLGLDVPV
T1 sequence (Q15303 26-1308): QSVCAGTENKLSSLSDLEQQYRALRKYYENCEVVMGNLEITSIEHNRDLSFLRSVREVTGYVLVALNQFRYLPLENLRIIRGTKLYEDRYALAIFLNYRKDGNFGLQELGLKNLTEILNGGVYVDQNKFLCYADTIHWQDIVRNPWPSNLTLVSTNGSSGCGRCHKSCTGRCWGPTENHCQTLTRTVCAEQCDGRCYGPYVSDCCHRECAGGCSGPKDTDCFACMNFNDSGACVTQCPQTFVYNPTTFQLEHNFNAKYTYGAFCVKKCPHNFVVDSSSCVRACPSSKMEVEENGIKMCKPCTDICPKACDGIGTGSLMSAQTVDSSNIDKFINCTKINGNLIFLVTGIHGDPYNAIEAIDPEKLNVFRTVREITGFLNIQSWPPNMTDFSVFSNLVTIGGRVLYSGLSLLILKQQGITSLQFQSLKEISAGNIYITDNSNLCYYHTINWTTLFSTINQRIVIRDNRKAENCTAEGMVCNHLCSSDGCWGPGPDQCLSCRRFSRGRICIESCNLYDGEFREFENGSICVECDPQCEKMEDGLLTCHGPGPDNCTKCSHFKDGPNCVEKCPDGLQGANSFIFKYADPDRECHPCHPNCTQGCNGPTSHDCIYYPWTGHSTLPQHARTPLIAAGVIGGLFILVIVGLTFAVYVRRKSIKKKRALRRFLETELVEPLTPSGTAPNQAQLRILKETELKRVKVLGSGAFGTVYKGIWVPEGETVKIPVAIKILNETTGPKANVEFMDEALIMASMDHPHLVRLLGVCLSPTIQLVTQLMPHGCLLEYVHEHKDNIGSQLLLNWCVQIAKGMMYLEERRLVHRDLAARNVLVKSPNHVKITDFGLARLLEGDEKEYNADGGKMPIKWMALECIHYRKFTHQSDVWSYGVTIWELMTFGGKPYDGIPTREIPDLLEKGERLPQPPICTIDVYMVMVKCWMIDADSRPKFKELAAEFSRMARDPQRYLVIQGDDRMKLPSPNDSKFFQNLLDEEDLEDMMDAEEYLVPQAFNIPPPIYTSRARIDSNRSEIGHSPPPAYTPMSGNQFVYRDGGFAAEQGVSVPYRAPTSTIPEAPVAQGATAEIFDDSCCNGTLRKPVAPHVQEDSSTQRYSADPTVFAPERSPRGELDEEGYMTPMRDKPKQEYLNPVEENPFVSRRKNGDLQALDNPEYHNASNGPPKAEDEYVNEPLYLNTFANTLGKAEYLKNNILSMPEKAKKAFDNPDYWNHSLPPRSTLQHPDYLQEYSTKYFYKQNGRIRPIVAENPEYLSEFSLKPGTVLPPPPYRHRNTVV
T1 sequence (P04626 23-1255 partner): as the sequence (P04626 23-1255, further chain) above

Q: Which EC50 (ERBB2/ERBB4) does the source give for O=C(NC1CC1)C(Sc1nc2ccccc2c(=O)n1C1CCCC1)c1ccccc1 (stereo not drawn) [EF-1] here?
A: Its EC50 is greater than 32 µM.

Q: What about the ERBB4/ERBB2 dimerization signal (ERBB2/ERBB4; 3.125e-8 M) of the same compound?
A: The ERBB4/ERBB2 dimerization signal was 0.

Q: What about the ERBB4/ERBB2 dimerization signal (ERBB2/ERBB4; 6.25e-8 M) of the same compound?
A: Its ERBB4/ERBB2 dimerization signal is 10.52 and 1.76 and 3.95 and -0.62 and 8.84 and 32.1 and -4.84 and 13.1.

Q: And the ERBB4/ERBB2 dimerization signal (ERBB2/ERBB4; 1.25e-7 M)?
A: Its ERBB4/ERBB2 dimerization signal is 11.16 and 1.7 and 0.22 and 2.37 and 10.84 and 42.31 and 0.8 and 15.8.

Q: And the ERBB4/ERBB2 dimerization signal (ERBB2/ERBB4; 2.5e-7 M)?
A: Its ERBB4/ERBB2 dimerization signal is 14.28 and 2.37 and -0.2 and 2.18 and 11.16 and 44.62 and 2.21 and 32.89.

Q: What about the ERBB4/ERBB2 dimerization signal (ERBB2/ERBB4; 5e-7 M) of the same compound?
A: Its ERBB4/ERBB2 dimerization signal is 15.8 and 3.34 and -0.84 and 2.5 and 14.03 and 46.76 and 10.28 and 38.19.

Q: And the ERBB4/ERBB2 dimerization signal (ERBB2/ERBB4; 1e-6 M)?
A: Its ERBB4/ERBB2 dimerization signal is 17.47 and 6.72 and 2.79 and 5.79 and 18.63 and 53.25 and 13.21 and 49.02.

Q: And the ERBB4/ERBB2 dimerization signal (ERBB2/ERBB4; 2e-6 M)?
A: Its ERBB4/ERBB2 dimerization signal is 23.23 and 10.36 and 6.17 and 10.55 and 22.36 and 58.49 and 25.9 and 62.1.

Q: What about the ERBB4/ERBB2 dimerization signal (ERBB2/ERBB4; 4e-6 M) of the same compound?
A: Its ERBB4/ERBB2 dimerization signal is 39.65 and 19.88 and 18.63 and 20.82 and 41.51 and 62.22 and 30.3 and 62.16.

Q: And the ERBB4/ERBB2 dimerization signal (ERBB2/ERBB4; 8e-6 M)?
A: The ERBB4/ERBB2 dimerization signal was 43.57 and 23.14 and 20.33 and 27.19 and 40.97 and 69.15 and 32.21 and 63.74.

Q: What about the ERBB4/ERBB2 dimerization signal (ERBB2/ERBB4; 1.6e-5 M) of the same compound?
A: Its ERBB4/ERBB2 dimerization signal is 49.69 and 37.91 and 30.09 and 36.81 and 54.68 and 124.7 and 60.3 and 94.64.

Q: What about the ERBB4/ERBB2 dimerization signal (ERBB2/ERBB4; 3.2e-5 M) of the same compound?
A: The ERBB4/ERBB2 dimerization signal was 99.26 and 72.09 and 64.59 and 71.61 and 99.65 and 139.93 and 119.85 and 114.61.

Q: And the “efficacy in ERBB2/ERBB4 dimerization assay at the highest concentration (in words)” value (ERBB2/ERBB4; highest concentration)?
A: The value was “like the natural ligand NRG1”.

Q: And the EC50 (ERBB2/ERBB3)?
A: The EC50 was greater than 32 µM.

Q: And the “stimulatory effect on ERBB2/ERBB3 heterodimerization (in words)” value (ERBB2/ERBB3)?
A: The value was “lower compared to ERBB4 homodimerization”.

Q: What about the ERBB3/ERBB2 dimerization signal (ERBB2/ERBB3; 3.125e-8 M) of the same compound?
A: The ERBB3/ERBB2 dimerization signal was 0.

Q: What about the ERBB3/ERBB2 dimerization signal (ERBB2/ERBB3; 6.25e-8 M) of the same compound?
A: Its ERBB3/ERBB2 dimerization signal is 4.35 and 0.16 and -2.68 and -0.63 and -0.56.

Q: What about the ERBB3/ERBB2 dimerization signal (ERBB2/ERBB3; 1.25e-7 M) of the same compound?
A: Its ERBB3/ERBB2 dimerization signal is 2.37 and 0.16 and -2.68 and -1.68 and -1.97.

Q: And the ERBB3/ERBB2 dimerization signal (ERBB2/ERBB3; 2.5e-7 M)?
A: Its ERBB3/ERBB2 dimerization signal is 0.62 and 4.11 and 0.43 and -3.27 and -3.43.

Q: And the ERBB3/ERBB2 dimerization signal (ERBB2/ERBB3; 5e-7 M)?
A: Its ERBB3/ERBB2 dimerization signal is 0.97 and 1.82 and 6.28 and 0.82 and -2.96 and -1.11.

Q: And the ERBB3/ERBB2 dimerization signal (ERBB2/ERBB3; 1e-6 M)?
A: The ERBB3/ERBB2 dimerization signal was 0.96 and 9.29 and 2.03 and -1.53 and -0.18.

Q: And the ERBB3/ERBB2 dimerization signal (ERBB2/ERBB3; 2e-6 M)?
A: Its ERBB3/ERBB2 dimerization signal is 1.34 and 1.02 and 9.84 and 3.13 and 0.57 and 2.12.

Q: And the ERBB3/ERBB2 dimerization signal (ERBB2/ERBB3; 4e-6 M)?
A: The ERBB3/ERBB2 dimerization signal was 3.1 and 10.27 and 4.36 and 4.61 and 5.16.

Q: And the ERBB3/ERBB2 dimerization signal (ERBB2/ERBB3; 8e-6 M)?
A: Its ERBB3/ERBB2 dimerization signal is 4.89 and 3.3 and 12.92 and 4.35 and 9.79 and 9.65.

Q: What about the ERBB3/ERBB2 dimerization signal (ERBB2/ERBB3; 1.6e-5 M) of the same compound?
A: The ERBB3/ERBB2 dimerization signal was 11.23 and 14.98 and 10.81 and 10.98 and 13.88.

Q: And the ERBB3/ERBB2 dimerization signal (ERBB2/ERBB3; 3.2e-5 M)?
A: The ERBB3/ERBB2 dimerization signal was 23.82 and 14.98 and 24 and 17.43 and 15.59 and 14.95.

Q: What about the “half-life with human liver microsomes” value of the same compound?
A: The value was greater than 6 h.
